{"source": "patent US9241976B2", "about": "“Use of HDL-related molecules to treat and prevent proinflammatory conditions” (THE REGENTS OF THE UNIVERSITY OF CALIFORNIA, priority 2011, dated 2016)", "key": {"[1]": {"test_system": "CT26 cells", "test": "Tumor-load study: CT26 flank tumors in BALB/c mice", "type": "in vivo, mouse", "experimental": "(§1) 6-week-old BALB/c female mice were given a 100 μL subcutaneous injection of 1×10^6 CT26 cells prepared as a single cell suspension in PBS, and the mice were treated with bHDLor BHDLat 10 mg/kg administered subcutaneously (SQ) daily for 15 days. The mice were sacrificed and tumor weights were measured.\n6-week-old BALB/c female mice were given a 100 μl subcutaneous injection of 1×10^6 CT26 cells prepared as a single cell suspension in PBS, treated with peptide at 10 mg/kg by SQ daily for 15 days.\nThe mice were killed and tumor weights were measured. The tumor volumes were measured using the formula V=½ (L×W^2).\nas §1, with “Six-week-old” for “6-week-old”, “[…]” for “μL”, “sc-4F or L-4F at” for “bHDLor BHDLat”, “subcutaneously” for “subcutaneously (SQ)”"}, "[2]": {"test_system": "lysophosphatidic acid (LPA)", "test": "Plasma LPA levels in treated mice", "type": "in vivo, mouse", "settings": "for plasma LPA levels: vs control mice", "experimental": "LPA (20:4) was purchased from Avanti Polar Lipids. LPA levels were determined as described previously (Murph et al., 2007, Methods Enymol 433:1-25).\n(§2) LPA (20:4) was purchased from Avanti Polar Lipids. LPA levels were determined as described previously (19)."}, "[3]": {"test_system": "CD31", "test": "CD31 immunohistochemistry of lung surface tumors", "type": "in vivo, mouse", "settings": "100 mg/kg/d in chow diet for 3 weeks, vs control mice", "experimental": "Tumor tissues from the lung surface were fixed and embedded with paraffin, sectioned at […] thickness. Sections were deparaffinized with xylene, rehydrated with 100%, 90%, 70%, and 50% ethanol, treated with proteinase K at […] for 30 minutes, and treated with 3% H2O2 for 30 minutes at room temperature to inhibit endogenous peroxidase, blocked with 10% normal goat serum and 4% bovine serum albumin prepared in PBS for 3 hours, and then incubated with 1:50 rat antimouse monoclonal CD31 antibody overnight at 4° C. The sections were incubated with corresponding biotinylated secondary antibody for 1 hour, followed by incubation with Vectastain ABC Elite reagents."}, "[4]": {"test_system": "LPA", "test": "LPA levels in CT26 cell culture medium", "type": "cell-based, mouse", "settings": "CT26 cells; 48 hours; vs control medium", "experimental": "FIGS. 17A-17B. HDL mimetic, L-4F inhibits LPA induced viability of CT26 cells and reduces LPA levels in cell culture medium. FIG. 17A, CT26 cells were cultured as described in Example 5 and incubated with either L-4F at 10 mg/mL or LPA at a concentration 5, 10, […], or cells were treated with both L-4F and LPA for 48 hours. All experiments were conducted in triplicate and each assay was carried out in quadruplicates. Data are represented as the mean±SD of the percent of control cells. FIG. 17B, LPA levels were measured in the cell culture medium after 48 hours of treatment.\nas §2\nLPA has been identified as an important mediator of tumor development, progression, and metastases in humans (26, 27). We have previously shown that apoAI mimetic peptides inhibit LPA-induced viability of ID8 cells and reduce serum LPA levels in mice injected with ID8 cells (17). […] LPA 20:4 and 18:1 were not detectable in cell culture medium (FIG. 17B)."}, "[5]": {"test_system": "HIF-1α", "test": "HIF-1α protein expression in human ovarian cancer cell lines, Western blot", "type": "cell-based", "experimental": "OV2008 cells were cultured in RPMI 1640 media with 10% fetal bovine serum, penicillin (100 U/ml), streptomycin (100 μg/ml), 1× minimal essential medium nonessential amino acid solution (Invitrogen, Carlsbad, Calif.), and insulin (0.25 U/ml) (Invitrogen). CAOV-3 cells were cultured in complete media consisting of Dulbecco's modified Eagle's medium with high glucose and L-glutamine (2 mM), 10% fetal bovine serum, penicillin (100 U/ml), streptomycin (100 μg/ml), and insulin (0.02 U/ml). To create hypoxic conditions, cells were transferred to a hypoxic chamber (model 3130; Thermo Fisher Scientific, Waltham, Mass.), where they were maintained at 37° C. in an atmosphere containing 5% CO2, 1% O2, and 94% N2. L-4F (the peptide Ac-D-W-F-K-A-F-Y-D-K-V-A-E-K-F-K-E-A-F-NH2 (SEQ ID NO: 12) synthesized from all L amino acids) was dissolved in water at 1 mg/ml (freshly prepared every time) and used between 1 and 10 μg/ml. L-5F was synthesized by Peptisyntha Inc. (Torrance, Calif.), dissolved in ABCT buffer (50 mM ammonium bicarbonate, pH 7.0, containing 0.1 mg/ml Tween 20) at 1 mg/ml, and diluted to the required concentrations before use. Cobalt chloride (CoCl2), insulin, cycloheximide (CHX), and N-(benzyloxycarbonyl)leucinylleucinylleucinal-Z-Leu-Leu-Leu-al (MG-132) were purchased from Sigma-Aldrich (St. Louis, Mo.). LPA (Avanti Polar Lipids, Alabaster, Ala.) in chloroform was dried as recommended by the manufacturer, dissolved in ethanol at a concentration of 20 mM as a stock solution, and diluted to the required concentrations in the corresponding cell culture media before use.\nWestern blot analyses were performed as described previously (Gao et al., 2011). In brief, cell lysates were collected in a lysis buffer containing 0.1 MNaCl, 5 mM EDTA, 50 μM sodium orthovanadate, 1% Triton X-100, and protease inhibitor tablet (Roche Diagnostics, Indianapolis, Ind.) in 50 mM Tris buffer, pH 7.5, loaded onto 4 to 12% Bis-Tris gel (Invitrogen), transferred to polyvinylidene difluoride membrane, and incubated with the appropriate antibodies. Anti-pThr^202/Tyr^204-Erk, anti-Erk, anti-pThr^389-p70 S6 kinase, anti-p70 S6 kinase, anti-pSer^473-Akt, and anti-Akt antibodies were purchased from Cell Signaling Technology (Danvers, Mass.); mouse anti-human HIF-1α antibody was purchased from BD Pharmingen (San Diego, Calif.); rabbit anti-mouse HIF-1α antibody was purchased from Abcam Inc. (Cambridge, Mass.); and anti-GAPDH antibody was purchased from Santa Cruz Biotechnology Inc. (Santa Cruz, Calif.)."}, "[6]": {"test_system": "HIF-1α", "test": "Hypoxia response element (HRE) luciferase reporter assay in OV2008 cells", "type": "cell-based, human", "experimental": "In brief, OV2008 cells were plated at 2×10^5 cells per well in a six-well plate and grown in complete media overnight. Then, pGL3-Epo-hypoxia response element (HRE)-Luc plasmid was transfected into cells by using Lipofectamine 2000 (Invitrogen). After 24 h, cells were starved overnight and subjected to L-4F treatment in the presence or absence of stimulators. A reporter assay system (Promega, Madison, Wis.) was used for the measurement of luciferase activity."}, "[7]": {"settings": "Example 3, 10 mg/kg subcutaneous daily for 15 days"}}, "data": [{"substance": "Ac-DWFKAFYDKVAEKFKEAF-NH2 [L-4F, Ac-D-W-F-K-A-F-Y-D-K-V-A-E-K-F-K-E-A-F-NH2]", "values": [{"measurement": "flank tumor volume", "setting": "[1]; [7]", "value": 313, "unit": "mm^3"}, {"measurement": "flank tumor weight", "setting": "[1]; [7]", "value": 179, "unit": "mg"}, {"measurement": "flank tumor weights", "setting": "[1]; Example 5, 10 mg/kg subcutaneously daily for 15 days", "value": 389, "unit": "mg"}, {"measurement": "plasma LPA levels", "setting": "[2]; BALB/c lung tumor mice, 100 mg/kg/d in chow for 3 weeks", "value": "significantly reduced"}, {"measurement": "plasma LPA levels", "setting": "[2]; C57BL/6J-APC^min/+ mice, 100 mg/kg/d in mouse chow for 8 weeks", "value": "significantly reduced"}, {"measurement": "decrease of plasma LPA levels compared with control mice", "setting": "[2]; C57BL/6J-APC^min/+ mice, chow, 8 weeks", "value": "> 50", "unit": "%"}, {"measurement": "CD31 expression in tumors", "setting": "[3]", "value": "significant decrease"}, {"measurement": "LPA 16:0 and 18:0 levels in cell culture medium", "setting": "[4]", "value": "significantly decreased"}, {"measurement": "CoCl2- and insulin-induced HIF-1α expression", "setting": "[5]; CAOV-3 cells", "value": "dose-dependently inhibited"}, {"measurement": "HIF-1α expression, post-treatment", "setting": "[5]; OV2008 cells stimulated first with CoCl2 or insulin 3 h or 24 h, 10 μg/ml", "value": "significantly decreased"}, {"measurement": "hypoxia-induced (low oxygen 1% O2, CoCl2) HIF-1α protein expression", "setting": "[5]; OV2008 cells, pretreatment", "value": "dose-dependently suppressed"}, {"measurement": "CoCl2- and insulin-induced HIF-1α expression", "setting": "[5]; SKOV3 cells", "value": "dose-dependently inhibited"}, {"measurement": "transcription of downstream HIF-1α target genes (HRE reporter), post-treatment", "setting": "[6]; OV2008 cells stimulated first with CoCl2 or insulin, 10 μg/ml", "value": "inhibition of the transcription"}, {"measurement": "CoCl2- and insulin-mediated induction of HRE luciferase activity", "setting": "[6]; OV2008 cells, 10 μg/ml pretreatment 1 h", "value": "significantly inhibited"}]}]}
